This passage reports inhibition and IC50 results from patent US10940139B2, “Compounds that interact with the Ras superfamily for the treatment of cancers, inflammatory diseases, rasopathies, and fibrotic disease” (Shy Therapeutics LLC, priority 2017, dated 2021).

pIC50: −log10 of the molar value.

KRas G12D/Q61H double mutant, sequence (P01116-2 other isoform, or with tags, fused parts or gaps G12D/Q61H): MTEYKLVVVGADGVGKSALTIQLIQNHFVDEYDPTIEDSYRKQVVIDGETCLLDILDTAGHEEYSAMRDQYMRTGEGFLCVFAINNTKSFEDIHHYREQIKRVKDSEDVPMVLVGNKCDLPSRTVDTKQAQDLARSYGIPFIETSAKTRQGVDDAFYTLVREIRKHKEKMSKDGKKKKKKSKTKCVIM

One assay addresses KRas G12D/Q61H double mutant (Homo sapiens (Human), UniProt P01116, G12D/Q61H). The assay can be described thus: Ras GTP binding domain inhibition assay (labeled GTP). To be noted: 20 μM compound; KRas G12D/Q61H double mutant; read-out: % Inhibition at 20 μM of K-Ras mutant and wild-type protein, KRas G12D Q61H. The method, then:
Buffer-I: • 50 mM Tris, pH 7.5 • 150 mM NaCl (optional) • 1 mM MgCl2 • 1 mM DTT. • KRas G12D mutant protein was expressed as a His-tagged protein. Purified His-KRas G12D protein was diluted in buffer-I to a final concentration of 3-10 μg/ml. • 200 μl of the diluted His-KRas G12D protein was added to a nickel coated 96 well plate and incubated overnight at 4° C. • The next day, wells were washed 3× in 200 μl of Buffer-I. • Then 200 μl of Buffer-I were added to each well in the presence of 1% DMSO. • Tested compounds were added to the protein-coated wells at a concentration of 20 μM, and incubated for 3 hours at room temperature. While performing IC50 measurements a serial dilution of all tested concentrations was prepared.
Then 22 μl of Cy3-GTP or Cy5-GTP was added to each well. The labeled GTP was incubated for 45 min. at room temperature. • Following GTP incubation, wells were washed 3× in Buffer-I, and 200 μl of Buffer-I were added to each well. • Following washes, the amount of bound labeled-GTP was measured with an Eppendorf AF2200 plate reader.
By substituting KRas G12D mutant protein with KRas G12C mutant, KRas wild type, KRas Q61H mutant, KRas G12D/Q61H double mutant or KRas G12C/Q61H double mutant under the assay conditions described above, KRas G12C mutant KRas wild type, KRas Q61H mutant, KRas G12D/Q61H double mutant and KRas G12C/Q61H double mutant inhibition, respectively, were each determined.
On to `COc1ccc(COCC(CNC(=O)c2cc(C)cc(C)c2)OC(=O)c2cc(C)cc(C)c2)cc1` (stereo not drawn), for which the inhibition at 20 µM is 25 to 50%.
`COC(C)c1nc(CN(Cc2ccc(C#N)cc2)Cc2cccc(F)c2)cs1` (stereo not drawn): the inhibition at 20 µM lay in the range of 25 to 50%.
In the case of `Cc1ccccc1N(CC(=O)NCC1CCCCCC1)S(C)(=O)=O`, the inhibition at 20 µM lay within 1 to 25%.
Turning to `COc1ccc(OCCCn2c(C(F)(F)F)c(Br)cnc2=O)cc1`, the inhibition at 20 µM was in the range of 25 to 50%.
Consider `CCN1CCN(Cc2ccc(NC(=O)c3cc(OC)c(OC)cc3OC)cc2)CC1`, for which the inhibition at 20 µM was 1 to 25%.
As for `Cc1sc2nc(-c3ccccn3)nc(NCC(=O)N3CCC(O)CC3)c2c1-c1ccccc1`, the inhibition at 20 µM was 25 to 50%.
As for `CN(C)S(=O)(=O)c1ccc(OCCn2c(=O)c(N3CCCCC3)c(N)n(C)c2=O)cc1`, the inhibition at 20 µM lay in the range of 1 to 25%.
As for `O=C(CSCc1cccc(F)c1)Nc1ccc(-c2ccccc2)cc1`, the inhibition at 20 µM lay in the range of 25 to 50%.
Regarding `Cc1c(C(=O)N(CCc2ccccc2)Cc2ccccc2)cccc1[N+](=O)[O-]`, the inhibition at 20 µM fell in the range of 25 to 50%.
On the same count and under the same terms, to `CCc1oc2ccccc2c1CN(C)C(=O)c1cccc(OCc2c(C)noc2C)c1` belongs 25 to 50%.
For the compound `CCc1cc(N2CC(Cc3cc(OC)cc(OC)c3)C2)nc(-c2ccncc2)n1`, the inhibition at 20 µM fell in the range of 1 to 25%.
Turning to `COc1ccc(CCN2CCN(c3ccc(C#N)c(C(F)(F)F)c3)CC2)cc1`, the inhibition at 20 µM was 25 to 50%.
Regarding `NC(=O)C1CCCN1Cc1cccc(NC(=O)c2ccccc2OCCOc2ccccc2)c1` (stereo not drawn), the inhibition at 20 µM lay in the range of 25 to 50%.
In the case of `COc1cc(C(=O)NCC(c2cccs2)N(C)C)ccc1OCc1ccccc1Cl` (stereo not drawn), the inhibition at 20 µM is 1 to 25%.
Take `O=S(=O)(Cc1ccc(OC(F)(F)F)cc1)Nc1cccnc1-n1cccn1`: the inhibition at 20 µM is 25 to 50%.
Take `O=C(NN(Cc1ccccc1)Cc1ccccc1)c1n[nH]c(=O)c2ccccc12`: the inhibition at 20 µM lay within 25 to 50%.
With `CCn1c(SCCCc2nc3ccccc3o2)nc2ccsc2c1=O`, the inhibition at 20 µM lay in the range of 1 to 25%.

Staying with this assay, now noted: 20 μM compound; read-out: % Inhibition at 20 μM KRas G12D Q61H.
Turning to `OC1CCC(Nc2nc(-c3ccccn3)nc3c2CCC3)CC1` (stereo not drawn), the inhibition at 20 µM fell in the range of 25 to 50%.
For `CC1(C)NC(=O)N(CC(=O)Nc2nc(-c3ccccn3)cs2)C1=O`, the inhibition at 20 µM is 1 to 25%.
Take `O=C(c1csc2c(O)nc(-c3ccccn3)nc12)N1CCN(c2cccc(Cl)c2)CC1` [drawing 2719]: the inhibition at 20 µM was 25 to 50%.
For `CN(C(=O)c1ccc(COc2ccccc2F)o1)c1nccs1`, the inhibition at 20 µM was in the range of 25 to 50%.
For the compound `O=C(Nc1nc(-c2ccccn2)cs1)c1ccc(=O)[nH]c1`, the inhibition at 20 µM lay in the range of 25 to 50%.
Same read-out and setting: to `CC(=O)Nc1ccc(C(F)(F)F)cc1NCc1nc(C)no1` belongs 1 to 25%; to `CCN(CC)S(=O)(=O)c1ccc(N2CCOCC2)c(C(=O)NCCCn2cnc3ccccc32)c1`, 1 to 25%; to `CCOC(=O)c1ccc(C(=O)NCCc2ccc(C(F)(F)F)cc2)nc1C`, 25 to 50%.
For `Nc1nc(-c2ccccn2)nn1C(=O)Cc1csc(-c2ccccc2)n1`, the inhibition at 20 µM lay in the range of 25 to 50%.
Turning to `COCCN(CCOC)c1nc(-c2ccccn2)nc2c1CCC2`, the inhibition at 20 µM lay in the range of 25 to 50%.
Regarding `Cc1nc(CN(Cc2ccccc2[N+](=O)[O-])C(C)c2ccc(Cl)cc2)oc1C` (stereo not drawn), the inhibition at 20 µM was in the range of 25 to 50%.
`O=C(Cc1ccc(Cl)cc1)Nc1nnc(-c2ccccn2)[nH]1`: the inhibition at 20 µM lay in the range of 25 to 50%.
For `CC(=O)N1CCC(Nc2nc(-c3ccccn3)nc3c2CCC3)C1` (stereo not drawn), the inhibition at 20 µM was in the range of 25 to 50%.
Take `CN(Cc1nc2ccccc2n1C)C(=O)c1cccc(Cl)n1`: the inhibition at 20 µM is 1 to 25%.
As for `O=C(Nc1nnc(-c2ccccn2)[nH]1)C1CCCN(c2ncccc2C(F)(F)F)C1` (stereo not drawn), the inhibition at 20 µM is 51 to 75%.
In the case of `CS(=O)(=O)c1cccc(C(=O)N2CCCc3c(O)nc(-c4ccccn4)nc32)c1` [drawing 2647], the inhibition at 20 µM lay within 51 to 75%.
Still for that read-out and setting: the result for `COCCCC1CCN(C(=O)c2csc3c(O)nc(N)nc23)CC1` [drawing 2661] reads 25 to 50%; that for `C=CCn1c(SCc2csc(-c3cccc(OC)c3OC)n2)nc2ccccc21`, 1 to 25%; that for `O=C(c1csc2c(O)nc(-c3ccccn3)nc12)N1CCN(c2ccccc2F)CC1` [drawing 2721], 25 to 50%.
Turning to `COc1cc(C(=O)Nc2nnc(-c3ccccn3)[nH]2)ccc1OCC(N)=O`, the inhibition at 20 µM lay in the range of 25 to 50%.
With `N#Cc1ccccc1S(=O)(=O)NC(c1ccccc1)c1ccccn1` (stereo not drawn), the inhibition at 20 µM is 1 to 25%.
Still for that read-out and setting: the result for `O=C(Nc1nnc(-c2ccccn2)[nH]1)c1cc(Cl)sc1Cl` reads 25 to 50%; that for `COc1ccc(Br)cc1CN(C)C(C)c1nnc(-c2ccc(C)cc2)o1` (stereo not drawn), 25 to 50%.
Turning to `CS(=O)(=O)CCCC(=O)N1CCCc2c(O)nc(-c3ccccn3)nc21` [drawing 2650], the inhibition at 20 µM fell in the range of 51 to 75%.
For `N#Cc1ccccc1CN1CCN(c2cccc(C(F)(F)F)c2)CC1`, the inhibition at 20 µM fell in the range of 1 to 25%.
Regarding `CCCn1c(CNc2ccccc2OCCOC)nc2cc(S(=O)(=O)N(C)C)ccc21`, the inhibition at 20 µM lay within 1 to 25%.
As for `C#Cc1cccc(N(CC(=O)N2CCOCC2)C(=O)c2ccc(COc3ccccc3F)o2)c1`, the inhibition at 20 µM fell in the range of 1 to 25%.
For `COCc1nc(C)c(C(=O)Nc2nnc(-c3ccccn3)[nH]2)s1`, the inhibition at 20 µM was in the range of 25 to 50%.
In the case of `Cc1c(C(=O)Nc2nc(-c3ccccn3)cs2)oc2ccccc12`, the inhibition at 20 µM was 25 to 50%.
For `COc1ccccc1CC(=O)Nc1nnc(-c2ccccn2)[nH]1`, the inhibition at 20 µM was in the range of 25 to 50%.
Same read-out and setting: to `Cc1cc(C)n2nc(CC(=O)N(Cc3ccccc3F)C3CC3)nc2n1` belongs 25 to 50%; to `CC1(N)CCN(C(=O)c2csc3c(O)nc(N)nc23)CC1`, 1 to 25%.
The same measure, in the same setting: to `CCOCCCNC(=O)c1cc(S(=O)(=O)N(CC)CC)ccc1NCCOC` belongs 1 to 25%.
As for `Cc1cccc2c(=O)[nH]c(-c3ccccn3)nc12`, the inhibition at 20 µM lay within 25 to 50%.
For the compound `Nc1nc(O)c2scc(-c3ccccc3Cl)c2n1` [drawing 2693], the inhibition at 20 µM was in the range of 1 to 25%.
On the same count and under the same terms, to `COC(=O)CCN(Cc1cc(Br)cc(C(F)(F)F)c1)C1CCOCC1` belongs 1 to 25%; to `COCC1CCN(C(=O)c2csc3c(O)nc(N)nc23)CC1` [drawing 2659], 1 to 25%.
For `COc1ccccc1CC(=O)N(CC(F)(F)F)C1CCCOC1` (stereo not drawn), the inhibition at 20 µM lay within 1 to 25%.

The same assay, now with this note: 20 μM; read-out: KRas G12D Q61H % Inh.
Regarding `O=C(Nc1nnc(-c2ccccn2)[nH]1)C1COc2ccccc2C1` (stereo not drawn) [drawing 2490], the inhibition at 20 µM is 51 to 75%.
`O=C(Nc1nc(-c2ccccn2)cs1)c1ccc2nccnc2c1` [drawing 2570]: the inhibition at 20 µM lay in the range of 51 to 75%.
On the same count and under the same terms, to `O=C(Cn1c(=O)oc2ccccc21)Nc1nnc(-c2ccccn2)[nH]1` [drawing 2502] belongs 51 to 75%; to `Cc1nc(-c2ccccn2)nc(O)c1CCC(=O)Nc1cccc(OCC(=O)N2CCCC2)c1` [drawing 2601], 25 to 50%; to `N#Cc1ccc(OCC(=O)Nc2nnc(-c3ccccn3)[nH]2)cc1`, 51 to 75%.
With `CCc1ccccc1OCC(=O)Nc1nnc(-c2ccccn2)[nH]1` [drawing 2530], the inhibition at 20 µM was 51 to 75%.
Regarding `CC(C)C1=C(O)C2(CC2c2ccc(-c3ccccc3)cc2)C(C)CC1` (stereo not drawn) [drawing 2635], the inhibition at 20 µM lay within 25 to 50%.
The same measure, in the same setting: to `Cc1ccc(CN(Cc2ccco2)C(=O)c2oc3ccccc3c2C)cc1` [drawing 2614] belongs 51 to 75%.
The same measure, in the same setting: to `O=C(Nc1nnc(-c2ccccn2)[nH]1)c1ccn(-c2cccc(F)c2)n1` [drawing 2468] belongs 51 to 75%; to `O=C(Nc1nnc(-c2ccccn2)[nH]1)c1ccc2c(c1)CCO2` [drawing 2455], 51 to 75%; to `CC(Oc1ccc(C(=O)Nc2nnc(-c3ccccn3)[nH]2)cn1)c1ccccc1` (stereo not drawn) [drawing 2512], 51 to 75%.
`COc1ccc(NC(=O)CCc2c(C)nc(-c3ccccn3)nc2O)cn1` [drawing 2594]: the inhibition at 20 µM lay in the range of 51 to 75%.
For the compound `Cc1nc2nc(C(F)(F)F)nn2c(C)c1CC(=O)Nc1nnc(-c2ccccn2)[nH]1` [drawing 2533], the inhibition at 20 µM is 51 to 75%.
Take `COc1cccc(COCC(=O)Nc2nnc(-c3ccccn3)[nH]2)c1` [drawing 2534]: the inhibition at 20 µM fell in the range of 51 to 75%.
In the case of `CS(=O)(=O)N1CCCc2cc(C(=O)N3CCCc4c(O)nc(-c5ccccn5)nc43)ccc21` [drawing 2645], the inhibition at 20 µM lay in the range of 25 to 50%.
For the compound `Cc1nc(-c2ccccn2)nc(O)c1CCC(=O)NCC1COc2ccccc2O1` (stereo not drawn) [drawing 2599], the inhibition at 20 µM lay in the range of 25 to 50%.
With `COc1cn(-c2ccccc2)nc1C(=O)Nc1nnc(-c2ccccn2)[nH]1` [drawing 2557], the inhibition at 20 µM was 76 to 100%.
On to `CC(COCc1ccccc1)C(=O)Nc1nnc(-c2ccccn2)[nH]1` (stereo not drawn) [drawing 2517], for which the inhibition at 20 µM lay within 51 to 75%.
Same read-out and setting: to `O=C(Cc1cccs1)Nc1nnc(-c2ccccn2)[nH]1` [drawing 2487] belongs 51 to 75%.

Staying with this assay, now noted: serial dilution; read-out: KRas G12D Q61H (classes E-H, IC50).
For the compound `CS(=O)(=O)c1cccc(C(=O)N2CCCc3c(O)nc(-c4ccccn4)nc32)c1` [drawing 2647], the pIC50 is 5.00 to 5.30.

As usually defined, the pIC50 is the negative decadic logarithm of the IC50, by convention in mol/L.
